Each compound was assayed against T1, purified human HDAC6 (Homo sapiens, UniProt Q9UBN7) (assay: HDAC6 Enzyme Assay). Conditions: bin: greater than 500 nM and less than 1 μM (lower bound in nM, upper bound in μM).
T1 construct: purchased BPS Bioscience 5006
T1 sequence (Q9UBN7 1-1215): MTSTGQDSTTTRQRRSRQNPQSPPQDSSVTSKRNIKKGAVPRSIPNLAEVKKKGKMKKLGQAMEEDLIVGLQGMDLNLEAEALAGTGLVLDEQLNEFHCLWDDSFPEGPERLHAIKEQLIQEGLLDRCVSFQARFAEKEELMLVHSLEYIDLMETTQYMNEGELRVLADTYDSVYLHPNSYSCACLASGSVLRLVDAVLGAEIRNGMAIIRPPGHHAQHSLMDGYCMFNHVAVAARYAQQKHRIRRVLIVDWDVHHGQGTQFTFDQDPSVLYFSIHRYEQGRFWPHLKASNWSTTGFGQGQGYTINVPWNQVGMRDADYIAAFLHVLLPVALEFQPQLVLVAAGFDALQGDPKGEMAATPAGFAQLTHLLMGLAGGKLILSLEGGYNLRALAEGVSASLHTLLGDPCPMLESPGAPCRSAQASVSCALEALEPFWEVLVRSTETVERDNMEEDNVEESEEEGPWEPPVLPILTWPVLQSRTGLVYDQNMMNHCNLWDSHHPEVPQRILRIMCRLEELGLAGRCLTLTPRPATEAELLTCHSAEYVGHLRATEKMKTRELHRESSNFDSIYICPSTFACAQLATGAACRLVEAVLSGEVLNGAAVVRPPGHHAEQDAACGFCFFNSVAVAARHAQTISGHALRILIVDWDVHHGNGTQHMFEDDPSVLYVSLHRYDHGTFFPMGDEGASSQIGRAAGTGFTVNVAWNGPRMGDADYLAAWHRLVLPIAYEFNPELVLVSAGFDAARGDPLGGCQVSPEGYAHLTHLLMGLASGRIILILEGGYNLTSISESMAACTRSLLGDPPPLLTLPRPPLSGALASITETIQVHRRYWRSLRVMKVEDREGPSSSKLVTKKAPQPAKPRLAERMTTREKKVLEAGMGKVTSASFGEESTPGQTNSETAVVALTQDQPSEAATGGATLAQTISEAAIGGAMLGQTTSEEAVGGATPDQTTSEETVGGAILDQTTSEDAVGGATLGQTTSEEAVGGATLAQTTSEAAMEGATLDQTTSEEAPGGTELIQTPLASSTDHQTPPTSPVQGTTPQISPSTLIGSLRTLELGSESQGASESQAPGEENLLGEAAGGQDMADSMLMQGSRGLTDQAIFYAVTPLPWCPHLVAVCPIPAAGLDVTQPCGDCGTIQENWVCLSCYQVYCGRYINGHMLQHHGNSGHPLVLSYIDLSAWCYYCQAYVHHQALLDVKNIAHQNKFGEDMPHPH
Format: biochemical
Procedure: To measure the inhibition of HDAC6 activity, purified human HDAC6 (BPS Bioscience; Cat. No. 5006) is incubated with substrate Ac-Arg-Gly-Lys(Ac)-AMC peptide (Bachem Biosciences; Cat. No. 1-1925) for 1 hour at 30° C. in the presence of test compounds or vehicle DMSO control. The reaction is stopped with the HDAC inhibitor trichostatin A (Sigma; Cat. No. T8552) and the amount of Arg-Gly-Lys-AMC generated is quantitated by digestion with trypsin (Sigma; Cat. No. T1426) and subsequent measurement of the amount of AMC released using a fluorescent plate reader (Pherastar; BMG Technologies) set at Ex 340 nm and Em 460 nm. Concentration response curves are generated by calculating the fluorescence increase in test compound-treated samples relative to DMSO-treated controls, and enzyme inhibition (IC50) values are determined from those curves.

**Q.** With `Cc1cc(C(=O)NC(c2ccc(C(=O)NO)cc2)C(C)(C)C)c(C)o1` (stereo not drawn) [Compound I-9, N-(1-{4-[(hydroxyamino)carbonyl]phenyl}-2,2-dimethylpropyl)-2,5-dimethyl-3-furamide] as the compound, how does the IC50 read?
**A.** Its IC50 is 500 to 1000 nM.

**Q.** Which IC50 does the source give for `CC(NC(=O)Cc1csc2ccc(Cl)cc12)c1cccc(C(=O)NO)c1` (stereo not drawn) [Compound I-13, 3-(1-{[(5-chloro-1-benzothien-3-yl)acetyl]amino}ethyl)-N-hydroxybenzamide] here?
**A.** Its IC50 is 500 to 1000 nM.

**Q.** `Cc1cc(C)c(CC(=O)NC(c2ccc(C(=O)NO)cc2)C(C)C)c(C)c1` (stereo not drawn) [Compound I-28, N-hydroxy-4-{1-[(mesitylacetyl)amino]-2-methylpropyl}benzamide] was tested. Which IC50 did it give?
**A.** The IC50 was 500 to 1000 nM.

**Q.** For `Cc1nc(C(=O)NC(C)c2cccc(C(=O)NO)c2)cs1` (stereo not drawn) [Compound I-29, N-(1-{3-[(hydroxyamino)carbonyl]phenyl}ethyl)-2-methyl-1,3-thiazole-4-carboxamide], which IC50 is on record?
**A.** Its IC50 is 500 to 1000 nM.

Same assay, conditions: bin: greater than 1 μM

**Q.** How did the IC50 turn out when `CC(NC(=O)Cc1c(F)cccc1Cl)c1ccc(C(=O)NO)cc1` (stereo not drawn) [Compound I-24, 4-(1-{[(2-chloro-6-fluorophenyl)acetyl]amino}ethyl)-N-hydroxybenzamide] was run?
**A.** Its IC50 is over 1000 nM.

**Q.** How did the IC50 turn out when `COc1ccccc1CC(=O)NC(C)c1ccc(C(=O)NO)cc1` (stereo not drawn) [Compound I-34, N-hydroxy-4-(1-{[(2-methoxyphenyl)acetyl]amino}ethyl)benzamide] was run?
**A.** The IC50 was over 1000 nM.

**Q.** `CC(C)C(=O)NC(C)c1ccc(C(=O)NO)cc1` (stereo not drawn) [Compound I-36, N-hydroxy-4-[1-(isobutyrylamino)ethyl]benzamide] was tested. Which IC50 did it give?
**A.** The IC50 was over 1000 nM.

Same assay, conditions: purified human HDAC6, substrate Ac-Arg-Gly-Lys(Ac)-AMC, 1 hour at 30° C.; reported as bins

**Q.** With `CCS(=O)(=O)NC(C)c1ccc(C(=O)NO)cc1` (stereo not drawn) [Compound I-1, 4-{1-[(ethylsulfonyl)amino]ethyl}-N-hydroxybenzamide] as the compound, how does the IC50 read?
**A.** Its IC50 is 100 to 500 nM.

**Q.** For `CC(NS(=O)(=O)c1ccc(F)cc1)c1ccc(C(=O)NO)cc1` (stereo not drawn) [Compound I-2, 4-(1-{[(4-fluorophenyl)sulfonyl]amino}ethyl)-N-hydroxybenzamide], which IC50 is on record?
**A.** The IC50 was 100 to 500 nM.

**Q.** Which IC50 does the source give for `CC(NC(=O)C12CC3CC(CC(C3)C1)C2)c1ccc(C(=O)NO)cc1` (stereo not drawn) [Compound I-3, N-(1-{4-[(hydroxyamino)carbonyl]phenyl}ethyl)adamantane-1-carboxamide] here?
**A.** Its IC50 is under 100 nM.

**Q.** `CC(C)(C)C(NC(=O)c1cc2ccccc2o1)c1ccc(C(=O)NO)cc1` (stereo not drawn) [Compound I-4, N-(1-{4-[(hydroxyamino)carbonyl]phenyl}-2,2-dimethylpropyl)-1-benzofuran-2-carboxamide] was tested. Which IC50 did it give?
**A.** The IC50 was under 100 nM.

**Q.** `C[C@@H](NC(=O)c1cc2oc(-c3ccccc3)cc2n1C)c1ccc(C(=O)NO)cc1` [Compound I-5, N-((1R)-1-{4-[(hydroxyamino)carbonyl]phenyl}ethyl)-4-methyl-2-phenyl-4H-furo[3,2-b]pyrrole-5-carboxamide] was tested. Which IC50 did it give?
**A.** The IC50 was under 100 nM.

**Q.** `CC(NC(=O)Nc1cccc2ccccc12)c1ccc(C(=O)NO)cc1` (stereo not drawn) [Compound I-6, N-hydroxy-4-(1-{[(1-naphthylamino)carbonyl]amino}ethyl)benzamide] was tested. Which IC50 did it give?
**A.** The IC50 was under 100 nM.

**Q.** With `Cc1c(C(=O)NC(C)c2ccc(C(=O)NO)cc2)oc2ccccc12` (stereo not drawn) [Compound I-7, N-(1-{4-[(hydroxyamino)carbonyl]phenyl}ethyl)-3-methyl-1-benzofuran-2-carboxamide] as the compound, how does the IC50 read?
**A.** The IC50 was under 100 nM.

**Q.** `Cc1ccc(F)c(C(=O)NC(C)c2ccc(C(=O)NO)cc2)c1` (stereo not drawn) [Compound I-8, 2-fluoro-N-(1-{4-[(hydroxyamino)carbonyl]phenyl}ethyl)-5-methylbenzamide] was tested. Which IC50 did it give?
**A.** Its IC50 is under 100 nM.

**Q.** How did the IC50 turn out when `CC(NC(=O)c1c[nH]c2ccccc12)c1cccc(C(=O)NO)c1` (stereo not drawn) [Compound I-10, N-(1-{3-[(hydroxyamino)carbonyl]phenyl}ethyl)-1H-indole-3-carboxamide] was run?
**A.** The IC50 was 100 to 500 nM.

**Q.** With `CC(C)C(NC(=O)c1ccc(-c2ccccc2)cc1)c1ccc(C(=O)NO)cc1` (stereo not drawn) [Compound I-11, N-(1-{4-[(hydroxyamino)carbonyl]phenyl}-2-methylpropyl)biphenyl-4-carboxamide] as the compound, how does the IC50 read?
**A.** The IC50 was under 100 nM.

**Q.** `Cc1c(C(=O)N[C@H](C)c2ccc(C(=O)NO)cc2)sc2ccccc12` [Compound I-12, N-((1R)-1-{4-[(hydroxyamino)carbonyl]phenyl}ethyl)-3-methyl-1-benzothiophene-2-carboxamide] was tested. Which IC50 did it give?
**A.** The IC50 was under 100 nM.

**Q.** For `CCC[C@@H](NC(=O)C12CC3CC(CC(C3)C1)C2)c1ccc(C(=O)NO)cc1` [Compound I-15, N-((1R)-1-{4-[(hydroxyamino)carbonyl]phenyl}butyl)adamantane-1-carboxamide], which IC50 is on record?
**A.** The IC50 was under 100 nM.

**Q.** For `C[C@@H](NC(=O)c1cc2oc(-c3ccccc3)cc2n1C)c1cccc(C(=O)NO)c1` [Compound I-16, N-((1R)-1-{3-[(hydroxyamino)carbonyl]phenyl}ethyl)-4-methyl-2-phenyl-4H-furo[3,2-b]pyrrole-5-carboxamide], which IC50 is on record?
**A.** The IC50 was 100 to 500 nM.

**Q.** `Cc1nc(-c2ccccc2)ncc1C(=O)NC(c1ccc(C(=O)NO)cc1)C(C)C` (stereo not drawn) [Compound I-17, N-(1-{4-[(hydroxyamino)carbonyl]phenyl}-2-methylpropyl)-4-methyl-2-phenylpyrimidine-5-carboxamide] was tested. Which IC50 did it give?
**A.** Its IC50 is 100 to 500 nM.

**Q.** How did the IC50 turn out when `CCC[C@@H](NC(=O)NC12CC3CC(CC(C3)C1)C2)c1ccc(C(=O)NO)cc1` [Compound I-18, 4-[(1R)-1-({[1-adamantylamino]carbonyl}amino)butyl]-N-hydroxybenzamide] was run?
**A.** Its IC50 is under 100 nM.

**Q.** How did the IC50 turn out when `COc1ccc(C(=O)N[C@@H](c2ccc(C(=O)NO)cc2)C(C)C)cc1` [Compound I-19, N-((1R)-1-{4-[(hydroxyamino)carbonyl]phenyl}-2-methylpropyl)-4-methoxybenzamide] was run?
**A.** Its IC50 is under 100 nM.

**Q.** With `CC(NC(=O)Nc1ccc(Oc2ccccc2)cc1)c1ccc(C(=O)NO)cc1` (stereo not drawn) [Compound I-20, N-hydroxy-4-[1-({[(4-phenoxyphenyl)amino]carbonyl}amino)ethyl]benzamide] as the compound, how does the IC50 read?
**A.** Its IC50 is 100 to 500 nM.

**Q.** How did the IC50 turn out when `CC(NC(=O)C1CCC1)c1ccc(C(=O)NO)cc1` (stereo not drawn) [Compound I-21, 4-{1-[(cyclobutylcarbonyl)amino]ethyl}-N-hydroxybenzamide] was run?
**A.** The IC50 was 100 to 500 nM.

**Q.** With `CC(C)[C@@H](NC(=O)c1cc2ccccc2o1)c1ccc(C(=O)NO)cc1` [Compound I-22, N-((1R)-1-{4-[(hydroxyamino)carbonyl]phenyl}-2-methylpropyl)-1-benzofuran-2-carboxamide] as the compound, how does the IC50 read?
**A.** Its IC50 is under 100 nM.

**Q.** How did the IC50 turn out when `COc1cccc(S(=O)(=O)NC(C)c2ccc(C(=O)NO)cc2)c1` (stereo not drawn) [Compound I-23, N-hydroxy-4-(1-{[(3-methoxyphenyl)sulfonyl]amino}ethyl)benzamide] was run?
**A.** Its IC50 is 100 to 500 nM.

**Q.** How did the IC50 turn out when `C[C@H](NC(=O)c1cccn1C)c1ccc(C(=O)NO)cc1` [Compound I-25, N-((1S)-1-{4-[(hydroxyamino)carbonyl]phenyl}ethyl)-1-methyl-1H-pyrrole-2-carboxamide] was run?
**A.** The IC50 was under 100 nM.

**Q.** For `C[C@@H](NC(=O)C1(C)CCCCC1)c1ccc(C(=O)NO)cc1` [Compound I-26, N-hydroxy-4-((1R)-1-{[(1-methylcyclohexyl)carbonyl]amino}ethyl)benzamide], which IC50 is on record?
**A.** Its IC50 is under 100 nM.

**Q.** For `CC(C)C(NC(=O)c1cccn1C)c1ccc(C(=O)NO)cc1` (stereo not drawn) [Compound I-30, N-(1-{4-[(hydroxyamino)carbonyl]phenyl}-2-methylpropyl)-1-methyl-1H-pyrrole-2-carboxamide], which IC50 is on record?
**A.** The IC50 was under 100 nM.

**Q.** With `CC(NC(=O)Nc1ccccc1Oc1ccccc1)c1ccc(C(=O)NO)cc1` (stereo not drawn) [Compound I-31, N-hydroxy-4-[1-({[(2-phenoxyphenyl)amino]carbonyl}amino)ethyl]benzamide] as the compound, how does the IC50 read?
**A.** The IC50 was under 100 nM.

**Q.** `CC(C)C(NC(=O)c1cc2ccccc2o1)c1ccc(C(=O)NO)cc1` (stereo not drawn) [Compound I-32, N-(1-{4-[(hydroxyamino)carbonyl]phenyl}-2-methylpropyl)-1-benzofuran-2-carboxamide] was tested. Which IC50 did it give?
**A.** The IC50 was under 100 nM.

**Q.** How did the IC50 turn out when `CC(NC(=O)c1cn2cc(Cl)ccc2n1)c1ccc(C(=O)NO)cc1` (stereo not drawn) [Compound I-35, 6-chloro-N-(1-{4-[(hydroxyamino)carbonyl]phenyl}ethyl)imidazo[1,2-a]pyridine-2-carboxamide] was run?
**A.** Its IC50 is under 100 nM.
